Here are results for 42 compounds from US8815909B2, “Diaminocyclohexane compounds and uses thereof” (Bristol-Myers Squibb Company, priority 2011, dated 2014).

As usually defined, the pEC50 is the EC50 on a negative log10 scale, so that one unit is a factor of ten.

The target of this test is T1, human Y4 receptor (Homo sapiens, UniProt P50391).
T1 construct: expressed in transfected cells
Kind of test: NPY4 cAMP HTRF Agonist Assay (inhibitory cAMP assay, Gi activation by Y4 agonism). Format: cell-based. The procedure, abridged: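 CHO cells stably expressing human Y4, 5000/well, exposed to compound with forskolin and IBMX in PBS for 30 min at room temperature. Gi-mediated inhibition of cAMP then measured by HTRF after 1 h with d2-conjugate and anti-cAMP cryptate.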
Background: Time-resolved FRET reads energy transfer from a long-lived donor to a nearby acceptor.

[1] abbreviates: human Y4 stable CHO clonal cells, forskolin + IBMX, read-out: NPY4 cAMP HTRF Agonist Assay EC50.
Setting [2] is: second TABLE 1, R2 is Phenyl-CF3, read-out: hY4 CAMP EC50.

Molecules are shown by their SMILES. pEC50: −log10 of the molar value. Counter-ions that a name gives are not always drawn. Like-named read-outs stand apart in the source and are kept apart here.

T1 sequence (P50391 whole entry): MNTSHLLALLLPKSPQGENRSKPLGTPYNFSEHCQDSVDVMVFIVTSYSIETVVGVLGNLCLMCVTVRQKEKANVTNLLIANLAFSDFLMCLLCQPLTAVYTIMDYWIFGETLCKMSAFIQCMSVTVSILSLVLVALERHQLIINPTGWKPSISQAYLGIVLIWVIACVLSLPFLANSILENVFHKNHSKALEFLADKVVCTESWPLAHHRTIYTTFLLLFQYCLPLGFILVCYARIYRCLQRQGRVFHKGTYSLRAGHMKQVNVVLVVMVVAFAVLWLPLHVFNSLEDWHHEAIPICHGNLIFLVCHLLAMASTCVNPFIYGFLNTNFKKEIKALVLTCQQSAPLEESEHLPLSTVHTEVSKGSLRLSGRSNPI

Consider `O=C(NC1CC1)c1cccc(-c2cnc(N[C@@H]3CCCC[C@H]3N[C@H]3CCCN(c4ccc(C(F)(F)F)nc4)C3)o2)c1` [Example 99, N-cyclopropyl-(3-(2-((1R,2R)-2((S)-1-(6-trifluoromethyl)pyridin-3yl)piperidin-3-ylamino)cyclohexylamino)oxazol-5-yl)benzamide], for which the pEC50 under setting [1] is 9.10.

Consider `COC(=O)Nc1cccc(-c2cnc(N[C@@H]3CCCC[C@H]3N[C@H]3CCCN(c4ccc(C(F)(F)F)cc4)C3)o2)c1` [Example 100, Methyl (3-(2-((1R,2R)-2(S)-1-(4-trifluoromethyl)phenylpiperidin-3-ylamino)cyclohexylamino)oxazol-5-yl)phenylcarbamate], for which the pEC50 under setting [1] was 8.52.

For `CCOC(=O)Nc1cccc(-c2cnc(N[C@@H]3CCCC[C@H]3N[C@H]3CCCN(c4ccc(C(F)(F)F)cc4)C3)o2)c1` [Example 101, Ethyl (3-(2-((1R,2R)-2(S)-1-(4-trifluoromethyl)phenylpiperidin-3-ylamino)cyclohexylamino)oxazol-5-yl)phenylcarbamate], under setting [1], the pEC50 is 8.70.

Consider `CCOC(=O)Nc1cccc(-c2cnc(N[C@@H]3CCCC[C@H]3N[C@H]3CCCN(c4ccc(C(F)(F)F)nc4)C3)o2)c1` [Example 102], for which, under setting [1], the pEC50 was 9.40.

Consider `COC(=O)Nc1cccc(-c2cnc(N[C@@H]3CCCC[C@H]3N[C@H]3CCCN(c4cnc(C(F)(F)F)nc4)C3)o2)c1` [Example 103, Methyl (3-(2-((1R,2R)-2((S)-1-(2-trifluoromethyl)pyrimidin-5-yl)piperidin-3-ylamino)cyclohexylamino)oxazol-5-yl)phenylcarbamate], for which, under setting [1], the pEC50 is 8.52.

As to `NC(=O)c1cccc(-c2cnc(N[C@@H]3CCCC[C@H]3N[C@H]3CCCN(c4ccc(C(F)(F)F)cc4)C3)o2)c1` [Example 104, (3-(2-((1R,2R)-2((S)-1-(4-trifluoromethyl)phenyl)piperidin-3-ylamino)cyclohexylamino)oxazol-5-yl)benzamide], the pEC50 under setting [1] was 9.70.

Turning to `CNC(=O)c1cccc(-c2cnc(N[C@@H]3CCCC[C@H]3N[C@H]3CCCN(c4ccc(C(F)(F)F)cc4)C3)o2)c1` [Example 105, N-Methyl (3-(2-((1R,2R)-2((S)-1-(4-trifluoromethyl)phenyl)piperidin-3-ylamino)cyclohexylamino)oxazol-5-yl)benzamide], under setting [1], the negative logarithm of the EC50 (pEC50) is 9.70.

Regarding `C[C@]1(N[C@@H]2CCCC[C@H]2Nc2ncc(-c3cccc(C(N)=O)c3)o2)CCCN(c2ccc(C(F)(F)F)cc2)C1` [Example 106, 3-(2-(((1R,2R)-2-(((S)-3-Methyl-1-(4-(trifluoromethyl)phenyl)piperidin-3-yl)amino)cyclohexyl)amino)oxazol-5-yl)benzamide], under setting [1], the pEC50 was 9.52.

Turning to `CCOC(=O)Nc1cccc(-c2cnc(N[C@@H]3CCCC[C@H]3N[C@H]3CCCN(c4cnc(C(F)(F)F)nc4)C3)o2)c1` [Example 107, Ethyl (3-(2-(((1R,2R)-2-(((S)-1-(2-(trifluoromethyl)pyrimidin-5-yl)piperidin-3-yl)amino)cyclohexyl)amino)oxazol-5-yl)phenyl)carbamate], the negative-log EC50 (pEC50) under setting [1] is 8.40.

As for `CC(C)(C)OC(=O)/C=C\c1ccnc(N[C@@H]2CCCC[C@H]2N[C@H]2CCCN(c3ccc(C#N)cc3)C2)c1` [Example 108, (Z)-tert-butyl 3-(2-(((1R,2R)-2-(((S)-1-(4-cyanophenyl)piperidin-3-yl)amino)cyclohexyl)amino)pyridin-4-yl)acrylate], the negative logarithm of the EC50 (pEC50) under setting [1] is 7.68.

As to `CC(C)(C)OC(=O)/C=C/c1ccnc(N[C@@H]2CCCC[C@H]2N[C@H]2CCCN(c3ccc(C#N)cc3)C2)c1` [Example 109, (E)-tert-butyl 3-(2-(((1R,2R)-2-(((S)-1-(4-cyanophenyl)piperidin-3-yl)amino)cyclohexyl)amino)pyridin-4-yl)acrylate], the pEC50 under setting [1] was 6.92.

In the case of `N#Cc1ccc(N2CCC[C@H](N[C@@H]3CCCC[C@H]3Nc3cc(/C=C\C(N)=O)ccn3)C2)cc1` [Example 110, (Z)-3-(2-(((1R,2R)-2-(((S)-1-(4-cyanophenyl)piperidin-3-yl)amino)cyclohexyl)amino)pyridin-4-yl)acrylamide], the pEC50 under setting [1] was 6.29.

Take `CC(C)(C)C(=O)OCc1ccnc(N[C@@H]2CCCC[C@H]2N[C@H]2CCCN(c3ccc(C#N)cc3)C2)c1` [Example 111, (2-(((1R,2R)-2-(((S)-1-(4-cyanophenyl)piperidin-3-yl)amino)cyclohexyl)amino)pyridin-4-yl)methyl pivalate]: the pEC50 under setting [1] is 6.25.

`O=C(Nc1nncs1)c1ccnc(N[C@@H]2CCCC[C@H]2N[C@H]2CCCN(c3ccc(C(F)(F)F)cc3)C2)c1` [Example 112]: the pEC50 under setting [1] was 6.23.

With `N#Cc1cnc(N[C@@H]2CCCC[C@H]2N[C@H]2CCCN(c3ccc(C(F)(F)F)cc3)C2)o1` [Example 113, 2-(((1R,2R)-2-(((S)-1-(4-(trifluoromethyl)phenyl)piperidin-3-yl)amino)cyclohexyl)amino)oxazole-5-carbonitrile], under setting [1], the pEC50 was 7.04.

As to `N#Cc1ccnc(N[C@@H]2CCCC[C@H]2N[C@H]2CCCN(c3ccc(C(F)(F)F)cc3)C2)c1` [Example 114, 2-(((1R,2R)-2-(((S)-1-(4-(trifluoromethyl)phenyl)piperidin-3-yl)amino)cyclohexyl)amino)isonicotinonitrile, bis trifluoroacetic acid salt], the pEC50 under setting [1] is 7.15.

`COC(=O)c1cccc(-c2cnc(N[C@@H]3CCCC[C@H]3N[C@H]3CCCN(c4ccc(C(F)(F)F)cc4)C3)o2)c1` [Example 115]: under setting [2], the negative logarithm of the EC50 (pEC50) is 7.17.

`O=C(O)c1cccc(-c2cnc(N[C@@H]3CCCC[C@H]3N[C@H]3CCCN(c4ccc(C(F)(F)F)cc4)C3)o2)c1` [Example 116]: the pEC50 under setting [2] was 6.05.

For `O=C(NC1CC1)c1cccc(-c2cnc(N[C@@H]3CCCC[C@H]3N[C@H]3CCCN(c4ccc(C(F)(F)F)cc4)C3)o2)c1` [Example 117], the pEC50 under setting [2] is 9.00.

Consider `CC(C)(C)NC(=O)c1cccc(-c2cnc(N[C@@H]3CCCC[C@H]3N[C@H]3CCCN(c4ccc(C(F)(F)F)cc4)C3)o2)c1` [Example 118], for which, under setting [2], the pEC50 is 7.42.

As for `NC(=O)c1cccc(-c2ccnc(N[C@@H]3CCCC[C@H]3N[C@H]3CCCN(c4ccc(C(F)(F)F)cc4)C3)c2)c1` [Example 119], the pEC50 under setting [2] is 8.40.

For `C[C@]1(N[C@@H]2CCCC[C@H]2Nc2cc(-c3cccc(C(N)=O)c3)ccn2)CCCN(c2ccc(C(F)(F)F)cc2)C1` [Example 120], under setting [2], the pEC50 is 8.52.

Regarding `FC(F)(F)Oc1ccc(-n2nnc(N[C@@H]3CCCC[C@H]3N[C@H]3CCCN(c4ccc(C(F)(F)F)cc4)C3)n2)cc1` [Example 121], the negative-log EC50 (pEC50) under setting [2] is 6.04.

Regarding `FC(F)(F)c1ccc(N2CCC[C@H](N[C@@H]3CCCC[C@H]3Nc3ncc(-c4cccc(-c5nnn[nH]5)c4)o3)C2)cc1` [Example 122], the pEC50 under setting [2] is 6.50.

On to `CN(C)C(=O)c1cccc(-c2cnc(N[C@@H]3CCCC[C@H]3N[C@H]3CCCN(c4ccc(C(F)(F)F)cc4)C3)o2)c1` [Example 123], for which the pEC50 under setting [2] was 6.63.

`CCNC(=O)c1cccc(-c2cnc(N[C@@H]3CCCC[C@H]3N[C@H]3CCCN(c4ccc(C(F)(F)F)cc4)C3)o2)c1` [Example 124]: the pEC50 under setting [2] was 8.70.

Take `CC(C)NC(=O)c1cccc(-c2cnc(N[C@@H]3CCCC[C@H]3N[C@H]3CCCN(c4ccc(C(F)(F)F)cc4)C3)o2)c1` [Example 125]: the pEC50 under setting [2] was 7.96.

Take `CC(C)(O)c1cccc(-c2ccnc(N[C@@H]3CCCC[C@H]3N[C@H]3CCCN(c4ccc(C(F)(F)F)cc4)C3)c2)c1` [Example 126]: the pEC50 under setting [2] is 7.32.

With `NCc1cccc(-c2ccnc(N[C@@H]3CCCC[C@H]3N[C@H]3CCCN(c4ccc(C(F)(F)F)cc4)C3)c2)c1` [Example 127], the pEC50 under setting [2] is 7.10.

For `CC(C)(C)NC(=O)c1cccc(-c2ccnc(N[C@@H]3CCCC[C@H]3N[C@H]3CCCN(c4ccc(C(F)(F)F)cc4)C3)c2)c1` [Example 128], the pEC50 under setting [2] is 6.64.

On to `OCc1cccc(-c2ccnc(N[C@@H]3CCCC[C@H]3N[C@H]3CCCN(c4ccc(C(F)(F)F)cc4)C3)c2)c1` [Example 129], for which the pEC50 under setting [2] is 7.39.

For the compound `CNC(=O)c1cccc(-c2ccnc(N[C@@H]3CCCC[C@H]3N[C@H]3CCCN(c4ccc(C(F)(F)F)cc4)C3)c2)c1` [Example 130], the pEC50 under setting [2] was 9.00.

With `CN(C)Cc1cccc(-c2ccnc(N[C@@H]3CCCC[C@H]3N[C@H]3CCCN(c4ccc(C(F)(F)F)cc4)C3)c2)c1` [Example 131], the pEC50 under setting [2] was 5.95.

As for `COC(=O)Nc1cccc(-c2ccnc(N[C@@H]3CCCC[C@H]3N[C@H]3CCCN(c4ccc(C(F)(F)F)cc4)C3)c2)c1` [Example 132], the negative-log EC50 (pEC50) under setting [2] is 8.52.

As to `O=C1OCCN1c1cccc(-c2cnc(N[C@@H]3CCCC[C@H]3N[C@H]3CCCN(c4ccc(C(F)(F)F)cc4)C3)o2)c1` [Example 133], the pEC50 under setting [2] is 8.10.

Consider `CC(C)OC(=O)Nc1cccc(-c2ccnc(N[C@@H]3CCCC[C@H]3N[C@H]3CCCN(c4ccc(C(F)(F)F)cc4)C3)c2)c1` [Example 134], for which the pEC50 under setting [2] was 7.89.

Consider `Oc1ccc(-c2ccnc(N[C@@H]3CCCC[C@H]3N[C@H]3CCCN(c4ccc(C(F)(F)F)cc4)C3)c2)cc1` [Example 135], for which the pEC50 under setting [2] was 7.57.

On to `CCOC(=O)Nc1cccc(-c2ccnc(N[C@@H]3CCCC[C@H]3N[C@H]3CCCN(c4ccc(C(F)(F)F)cc4)C3)c2)c1` [Example 136], for which the pEC50 under setting [2] is 8.70.

Consider `O=C(Nc1cccc(-c2ccnc(N[C@@H]3CCCC[C@H]3N[C@H]3CCCN(c4ccc(C(F)(F)F)cc4)C3)c2)c1)OCCF` [Example 137], for which the pEC50 under setting [2] is 8.70.

Take `CCNC(=O)c1cccc(-c2ccnc(N[C@@H]3CCCC[C@H]3N[C@H]3CCCN(c4ccc(C(F)(F)F)cc4)C3)c2)c1` [Example 138]: the pEC50 under setting [2] was 8.05.

With `CCCNC(=O)c1cccc(-c2ccnc(N[C@@H]3CCCC[C@H]3N[C@H]3CCCN(c4ccc(C(F)(F)F)cc4)C3)c2)c1` [Example 139], the pEC50 under setting [2] was 7.54.

`CC(=O)NCc1cccc(-c2ccnc(N[C@@H]3CCCC[C@H]3N[C@H]3CCCN(c4ccc(C(F)(F)F)cc4)C3)c2)c1` [Example 140]: the pEC50 under setting [2] is 9.00.
